Test results as given in patent US8541598B2, “Biodegradable solvents for the chemical industry” (Dublin City University, priority 2007, dated 2013).
Entries after “also recorded” stand apart in the source; their conditions may differ.

Tested on: Pseudomonas aeruginosa, Escherichia coli, Klebsiella sp., Salmonella sp., Staphylococcus aureus, Enterococcus sp., Bacillus subtilis
Assay: Antimicrobial activity / minimum inhibitory concentrations on seven strains of bacteria
Type: cell-based
Conditions: for toxicity / antibacterial activity in words: seven strains of bacteria; for MIC values: seven strains, not split, range tested 0-20000 μg/ml
Experimental: Seven strains of bacteria were used in the assessment of the antimicrobial activity of the ILs claimed: 4 gram negative and three gram positive as shown below.
A wide concentration range was tested (0-20000 μg/ml). The concentrations screened for antibacterial activity are generally from 2 μg/ml to 1000 μg/ml (Table 6). […] The concentration range screened for the ILs containing ethers was up to 20000 μg/ml. At these high concentrations a lack of antibacterial activity is a significant result.

| Compound | toxicity / antibacterial activity in words | MIC values |
| --- | --- | --- |
| 3-methyl-1-(2-[2-ethoxy]ethoxycarbonylmethyl)imidazolium BF4 [KG63] | non-toxic | >20000 KG63 μg/ml |
| CCC(NC(=O)Cn1cc[n+](C)c1)OC.[Br-] (stereo not drawn) [KG423, (3-methyl-1-[1-methoxypropyl]carbamylmethyl)imidazolium bromide] | low toxicity | >20000 KG423 μg/ml |
| COCCOCCOC(=O)Cn1cc[n+](C)c1C.O=S(=O)([N-]S(=O)(=O)C(F)(F)F)C(F)(F)F [KG59, 2,3-dimethyl-1-(2-[2-methoxyethoxy]ethoxycarbonylmethyl)imidazolium NTf2] | non-toxic | >20000 KG59 μg/ml |
| 3-methyl-1-(2-[2-propoxyethoxy]ethoxycarbonylmethyl)imidazolium BF4 [KG68] | non-toxic | >20000 KG68 μg/ml |
| Cc1n(CC(=O)N2CCCC2)cc[n+]1C.[Br-] [KG421, 2,3-dimethyl-1-(pyrrolidinylcarbonylmethyl)imidazolium bromide, reference compound] |  | >20000 KG421 μg/ml |
| COCCOC(=O)Cn1cc[n+](C)c1.N#C[N-]C#N [KG75, 3-methyl-1-(2-[2-methoxy]ethoxycarbonylmethyl)imidazolium N(CN)2] | non-toxic | >20000 KG75 μg/ml |
| COCCOCCOC(=O)C[n+]1ccn(C)c1C.N#C[N-]C#N [KG85, 2,3-dimethyl-1-(2-[2-methoxyethoxy]ethoxycarbonylmethyl)imidazolium N(CN)2] | non-toxic | >20000 KG85 μg/ml |
| 3-methyl-1-(2-[2-ethoxyethoxy]ethoxycarbonylmethyl)imidazolium BF4 [KG67] | non-toxic | >20000 KG67 μg/ml |
| 3-methyl-1-(2-[2-methoxyethoxy]ethoxycarbonylmethyl)imidazolium PF6 [KG27] | non-toxic | 2500 KG27 μg/ml |
| COC(C)N(C(=O)Cn1cc[n+](C)c1)C(C)OC.[Br-] (stereo not drawn) [KG407, (3-methyl-1-[bis-1-methoxyethyl]carbamylmethyl)imidazolium bromide] | low toxicity; also recorded: non-toxic | >20000 KG407 μg/ml |
| 2,3-dimethyl-1-(2-[2-butoxy]ethoxycarbonylmethyl)imidazolium BF4 [KG71] | non-toxic | >20000 KG71 μg/ml |
| 3-methyl-1-(2-[2-butoxyethoxy]ethoxycarbonylmethyl)imidazolium BF4 [KG69] | non-toxic | >20000 KG69 μg/ml |
| CCCCOCCOC(=O)C[n+]1ccn(C)c1C.O=S(=O)([N-]S(=O)(=O)C(F)(F)F)C(F)(F)F [KG58, 2,3-dimethyl-1-(2-[2-butoxy]ethoxycarbonylmethyl)imidazolium NTf2] | non-toxic | >20000 KG58 μg/ml |
| 3-methyl-1-(2-[2-butoxy]ethoxycarbonylmethyl)imidazolium PF6 [KG26] | non-toxic | >20000 KG26 μg/ml |
| CCCOCCOCCOC(=O)Cn1cc[n+](C)c1.N#C[N-]C#N [KG81, 3-methyl-1-(2-[2-propoxyethoxy]ethoxycarbonylmethyl)imidazolium N(CN)2] | non-toxic | >20000 KG81 μg/ml |
| 2,3-dimethyl-1-(2-[2-butoxy]ethoxycarbonylmethyl)imidazolium PF6 [KG32] | non-toxic | >20000 KG32 μg/ml |
| CCCCOCCOCCOC(=O)Cn1cc[n+](C)c1.O=S(=O)([N-]S(=O)(=O)C(F)(F)F)C(F)(F)F [KG56, 3-methyl-1-(2-[2-butoxyethoxy]ethoxycarbonylmethyl)imidazolium NTf2] | non-toxic | >20000 KG56 μg/ml |
